Reference: ChEMBL document CHEMBL1146849, “Identification of a lead pharmacophore for the development of potent nuclear receptor modulators as anticancer and X syndrome disease therapeutic agents” (Bioorg Med Chem Lett, 2006)
Calls of active or inactive are those of the source. The rule behind the calls is not given here.

How the values were obtained:
[1] = target: T1, Bile acid receptor (Homo sapiens) (UniProt Q96RI1); experiment: Agonist activity at FXR in HepG2 cells by luciferase activity relative to CDCA at 10 uM; type: functional, cell-based
T1 sequence (whole entry): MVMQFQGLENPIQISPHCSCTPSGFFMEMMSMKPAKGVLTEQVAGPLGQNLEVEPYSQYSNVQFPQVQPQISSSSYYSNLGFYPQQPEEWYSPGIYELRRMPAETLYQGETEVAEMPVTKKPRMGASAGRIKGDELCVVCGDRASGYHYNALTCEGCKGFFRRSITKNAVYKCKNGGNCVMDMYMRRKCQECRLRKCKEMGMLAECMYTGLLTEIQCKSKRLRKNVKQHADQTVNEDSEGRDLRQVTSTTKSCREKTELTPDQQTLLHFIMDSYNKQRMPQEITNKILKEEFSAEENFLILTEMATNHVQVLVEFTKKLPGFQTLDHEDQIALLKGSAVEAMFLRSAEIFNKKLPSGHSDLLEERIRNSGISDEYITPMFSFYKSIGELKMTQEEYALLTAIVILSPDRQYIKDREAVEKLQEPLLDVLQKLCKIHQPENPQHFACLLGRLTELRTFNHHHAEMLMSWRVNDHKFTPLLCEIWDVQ

[2] = test system: Androgen receptor (Homo sapiens), P10275 [T878A]; experiment: Agonist activity at human androgen receptor T877A mutant relative to control; type: functional
Chain of Androgen receptor (Homo sapiens), P10275 [T878A] (P10275 whole entry T878A): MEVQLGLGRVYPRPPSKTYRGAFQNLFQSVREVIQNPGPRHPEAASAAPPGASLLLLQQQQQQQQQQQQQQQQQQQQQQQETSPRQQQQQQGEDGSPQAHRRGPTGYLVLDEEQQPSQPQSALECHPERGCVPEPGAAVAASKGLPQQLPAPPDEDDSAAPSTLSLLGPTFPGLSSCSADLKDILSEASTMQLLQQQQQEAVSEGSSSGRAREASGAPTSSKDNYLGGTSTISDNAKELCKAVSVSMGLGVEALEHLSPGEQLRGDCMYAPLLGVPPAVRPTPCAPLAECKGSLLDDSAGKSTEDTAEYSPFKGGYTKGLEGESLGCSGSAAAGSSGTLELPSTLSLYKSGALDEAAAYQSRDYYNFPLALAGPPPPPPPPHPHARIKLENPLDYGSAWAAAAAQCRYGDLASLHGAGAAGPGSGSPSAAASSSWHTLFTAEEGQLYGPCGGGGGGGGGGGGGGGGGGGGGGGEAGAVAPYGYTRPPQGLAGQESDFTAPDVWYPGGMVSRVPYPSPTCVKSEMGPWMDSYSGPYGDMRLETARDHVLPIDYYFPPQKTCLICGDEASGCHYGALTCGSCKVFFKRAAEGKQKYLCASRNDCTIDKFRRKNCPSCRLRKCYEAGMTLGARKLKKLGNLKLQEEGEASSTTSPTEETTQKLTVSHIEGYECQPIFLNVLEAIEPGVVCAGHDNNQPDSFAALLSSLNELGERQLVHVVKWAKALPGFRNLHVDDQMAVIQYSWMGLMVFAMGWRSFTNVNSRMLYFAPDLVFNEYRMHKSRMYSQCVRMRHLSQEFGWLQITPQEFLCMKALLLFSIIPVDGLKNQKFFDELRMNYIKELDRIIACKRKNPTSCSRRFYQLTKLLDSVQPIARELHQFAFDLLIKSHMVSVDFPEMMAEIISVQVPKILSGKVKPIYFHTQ

Activity [1] | Activity [2] | Structure (SMILES)
Active | – | Cc1ccc(C(=O)N2Cc3ccccc3C[C@H]2CO)cc1F
– | inactive | Cc1cc(C)cc(C(=O)N2Cc3ccccc3C[C@H]2CO)c1
– | inactive | O=C(c1ccc(C(O)(C(F)(F)F)C(F)(F)F)cc1)N1Cc2ccccc2C[C@H]1CO
